Earlier results as cited in patent US20040166069A1, “Boosting Tyrosinase Inhibiting Activity of Skin Whitening and Sunscreen Compositions” (priority 2003, published 2004).

Test system: de-pigmentation
Details: relative to hydroquinone

Structure (SMILES)	quantity required compared to the quantity of hydroquinone used to achieve a similar effect
OC[C@H]1O[C@@H](Oc2ccc(O)cc2)[C@H](O)[C@@H](O)[C@@H]1O [arbutin]	over 100 times
O=C1O[C@H]([C@@H](O)CO)C(O)=C1O [ascorbic acid]	17 times
